According to patent US20160242416A1, “FUNGICIDAL ISOXAZOLINE CARBINOLS” (E I DU PONT DE NEMOURS AND COMPANY, priority 2015, published 2016):
Like-named read-outs stand apart in the source and are kept apart here.

Key:
[1] = tested on: Plasmopara viticola; assay: Test A: grape downy mildew, preventive spray on grape seedlings; assay type: in vivo; conditions: 100 = 100% disease control, 0 = no control
Description: A dash (-) indicates no test results.

[2] = tested on: Phytophthora infestans; assay type: in vivo; conditions: tomato late blight, 100 = 100% disease control, 0 = no control
[3] = tested on: Botrytis cinerea; assay: Test B: gray mold, preventive spray on tomato seedlings; conditions: gray mold on tomato, 100 = 100% disease control, 0 = no control
Description: General protocol for preparing test solutions for Tests A-G: the test compounds were first dissolved in acetone in an amount equal to 3% of the final volume and then suspended at the desired concentration (in ppm) in acetone and purified water (50/50 mix by volume) containing 250 ppm of the surfactant PEG400 (polyhydric alcohol esters). The resulting test suspensions were then used in Tests A-G. Compounds were sprayed at a concentration of 50 ppm (*) or 10 ppm to the point of run-off on the test plants, the equivalent of a rate of 200 g/ha or 40 g/ha, respectively.
The test solution was sprayed to the point of run-off on tomato seedlings. The following day the seedlings were inoculated with a spore suspension of Botrytis cinerea (the causal agent of gray mold on many crops) and incubated in a saturated atmosphere at 20° C. for 48 h, and moved to a growth chamber at 27° C. for 2 days, after which time visual disease ratings were made.
Compounds with an asterisks (*) were applied at a concentration of 50 ppm, otherwise test solutions were applied at 10 ppm.

[4] = tested on: Puccinia recondita f sp. tritici; assay: Test F: wheat leaf rust, preventive spray on wheat seedlings; conditions: wheat leaf rust, 100 = 100% disease control, 0 = no control
[5] = tested on: Zymoseptoria tritici; assay: Test E: wheat leaf blotch, preventive spray on wheat seedlings; conditions: wheat leaf blotch, 100 = 100% disease control, 0 = no control
[6] = tested on: Stagonospora nodorum; assay: Test D: wheat glume blotch, preventive spray on wheat seedlings; conditions: wheat glume blotch, 100 = 100% disease control, 0 = no control
[7] = tested on: Erysiphe graminis f sp. tritici; assay: Test G: wheat powdery mildew, preventive spray on wheat seedlings; conditions: wheat powdery mildew, 100 = 100% disease control, 0 = no control

OC(Cn1cncn1)(C1=NOC(Cn2ccc(-c3ccc(C(F)(F)F)cc3)n2)C1)c1ccc(Cl)cc1 (single isomer, unassigned) [Compound 68]
Test A rating (% disease control) ([1]; 10 ppm): 3% | Test C rating (% disease control) ([2]; 10 ppm): 0% | Test B rating (% disease control) ([3]; 10 ppm): 0% | Test F rating (% disease control) ([4]; 10 ppm): 99% | Test E rating (% disease control) ([5]; 10 ppm): 2% | Test D rating (% disease control) ([6]; 10 ppm): 0% | Test G rating (% disease control) ([7]; 10 ppm): 95%

OC(Cn1cncn1)(C1=NOC(Cn2ccc(-c3ccc(C(F)(F)F)cc3)n2)C1)c1ccc(Cl)cc1 (single isomer, unassigned) [Compound 67]
Test A rating (% disease control) ([1]; 10 ppm): 13% | Test C rating (% disease control) ([2]; 10 ppm): 0% | Test B rating (% disease control) ([3]; 10 ppm): 0% | Test F rating (% disease control) ([4]; 10 ppm): 100% | Test E rating (% disease control) ([5]; 10 ppm): 0% | Test D rating (% disease control) ([6]; 10 ppm): 0% | Test G rating (% disease control) ([7]; 10 ppm): 99%

CC(C)C(O)(Cn1cncn1)C1=NOC(c2ccc(Cl)cc2)C1 (single isomer, unassigned) [Compound 4]
Test A rating (% disease control) ([1]; 10 ppm): 0% | Test C rating (% disease control) ([2]; 10 ppm): 0% | Test B rating (% disease control) ([3]; 10 ppm): 9% | Test F rating (% disease control) ([4]; 10 ppm): 98% | Test E rating (% disease control) ([5]; 10 ppm): 0% | Test D rating (% disease control) ([6]; 10 ppm): 100% | Test G rating (% disease control) ([7]; 10 ppm): 99%

C=CCC(O)(Cn1cncn1)C1=NOC(c2ccc(Cl)cc2)C1 (single isomer, unassigned) [Compound 85]
Test A rating (% disease control) ([1]; 10 ppm): 19% | Test C rating (% disease control) ([2]; 10 ppm): 0% | Test B rating (% disease control) ([3]; 10 ppm): 0% | Test F rating (% disease control) ([4]; 10 ppm): 0% | Test E rating (% disease control) ([5]; 10 ppm): 0% | Test D rating (% disease control) ([6]; 10 ppm): 68% | Test G rating (% disease control) ([7]; 10 ppm): 87%

OC(Cn1cncn1)(C1=NOC(COc2ccc(Cl)cc2)C1)c1ccc(Cl)cc1 (single isomer, unassigned) [Compound 61]
Test A rating (% disease control) ([1]; 10 ppm): 4% | Test C rating (% disease control) ([2]; 10 ppm): 0% | Test B rating (% disease control) ([3]; 10 ppm): 0% | Test F rating (% disease control) ([4]; 10 ppm): 100% | Test E rating (% disease control) ([5]; 10 ppm): 99% | Test D rating (% disease control) ([6]; 10 ppm): 94% | Test G rating (% disease control) ([7]; 10 ppm): 100%

CCCC(O)(Cn1cncn1)C1=NOC(c2ccc(Cl)cc2)C1 (single isomer, unassigned) [Compound 83]
Test A rating (% disease control) ([1]; 10 ppm): 1% | Test C rating (% disease control) ([2]; 10 ppm): 0% | Test B rating (% disease control) ([3]; 10 ppm): 0% | Test F rating (% disease control) ([4]; 10 ppm): 99% | Test E rating (% disease control) ([5]; 10 ppm): 0% | Test D rating (% disease control) ([6]; 10 ppm): 87% | Test G rating (% disease control) ([7]; 10 ppm): 99%

CC(O)(Cn1cncn1)C1=NOC(c2ccc(Cl)cc2)C1 (single isomer, unassigned) [Compound 35]
Test A rating (% disease control) ([1]; 50 ppm (asterisk)): 21% | Test C rating (% disease control) ([2]; 50 ppm (asterisk)): 0% | Test B rating (% disease control) ([3]; 50 ppm (asterisk)): 0% | Test F rating (% disease control) ([4]; 50 ppm (asterisk)): 40% | Test E rating (% disease control) ([5]; 50 ppm (asterisk)): 0% | Test D rating (% disease control) ([6]; 50 ppm (asterisk)): 63% | Test G rating (% disease control) ([7]; 50 ppm (asterisk)): 100%

OC(Cn1cncn1)(C1=NOC(COc2ccc(C(F)(F)F)cc2)C1)c1ccc(Cl)cc1 (single isomer, unassigned) [Compound 63]
Test A rating (% disease control) ([1]; 10 ppm): 3% | Test C rating (% disease control) ([2]; 10 ppm): 0% | Test B rating (% disease control) ([3]; 10 ppm): 0% | Test F rating (% disease control) ([4]; 10 ppm): 100% | Test E rating (% disease control) ([5]; 10 ppm): 97% | Test D rating (% disease control) ([6]; 10 ppm): 41% | Test G rating (% disease control) ([7]; 10 ppm): 100%

OC(Cn1cncn1)(C1=NOC(Cn2ccc(-c3ccc(Cl)cc3)n2)C1)c1ccc(Cl)cc1 (single isomer, unassigned) [Compound 65]
Test A rating (% disease control) ([1]; 10 ppm): 3% | Test C rating (% disease control) ([2]; 10 ppm): 0% | Test B rating (% disease control) ([3]; 10 ppm): 0% | Test F rating (% disease control) ([4]; 10 ppm): 100% | Test E rating (% disease control) ([5]; 10 ppm): 0% | Test D rating (% disease control) ([6]; 10 ppm): 0% | Test G rating (% disease control) ([7]; 10 ppm): 98%

OC(Cc1ccc(Cl)cc1)(Cn1cncn1)C1=NOC(c2ccc(Cl)cc2)C1 (single isomer, unassigned) [Compound 94]
Test A rating (% disease control) ([1]; 10 ppm): 0% | Test C rating (% disease control) ([2]; 10 ppm): 0% | Test B rating (% disease control) ([3]; 10 ppm): 0% | Test F rating (% disease control) ([4]; 10 ppm): 100% | Test E rating (% disease control) ([5]; 10 ppm): 0% | Test D rating (% disease control) ([6]; 10 ppm): 98% | Test G rating (% disease control) ([7]; 10 ppm): 99%

CCCC(O)(Cn1cncn1)C1=NOC(c2ccc(Cl)cc2)C1 (single isomer, unassigned) [Compound 82]
Test A rating (% disease control) ([1]; 10 ppm): 1% | Test C rating (% disease control) ([2]; 10 ppm): 0% | Test B rating (% disease control) ([3]; 10 ppm): 33% | Test F rating (% disease control) ([4]; 10 ppm): 98% | Test E rating (% disease control) ([5]; 10 ppm): 0% | Test D rating (% disease control) ([6]; 10 ppm): 99% | Test G rating (% disease control) ([7]; 10 ppm): 100%

OC(Cn1cncn1)(C1=NOC(Cn2ccc(-c3ccc(Cl)cc3)n2)C1)c1ccc(Cl)cc1 (single isomer, unassigned) [Compound 66]
Test A rating (% disease control) ([1]; 10 ppm): 3% | Test C rating (% disease control) ([2]; 10 ppm): 0% | Test B rating (% disease control) ([3]; 10 ppm): 0% | Test F rating (% disease control) ([4]; 10 ppm): 98% | Test E rating (% disease control) ([5]; 10 ppm): 1% | Test D rating (% disease control) ([6]; 10 ppm): 0% | Test G rating (% disease control) ([7]; 10 ppm): 97%

CC(O)(Cn1cncn1)C1=NOC(c2ccc(Cl)cc2)C1 (single isomer, unassigned) [Compound 36]
Test A rating (% disease control) ([1]; 50 ppm (asterisk)): 11% | Test C rating (% disease control) ([2]; 50 ppm (asterisk)): 0% | Test B rating (% disease control) ([3]; 50 ppm (asterisk)): 0% | Test F rating (% disease control) ([4]; 50 ppm (asterisk)): 17% | Test E rating (% disease control) ([5]; 50 ppm (asterisk)): 0% | Test D rating (% disease control) ([6]; 50 ppm (asterisk)): 53% | Test G rating (% disease control) ([7]; 50 ppm (asterisk)): 99%

CC(C)C(O)(Cn1cncn1)C1=NOC(c2ccc(Cl)cc2)C1 (single isomer, unassigned) [Compound 3]
Test A rating (% disease control) ([1]; 10 ppm): 9% | Test C rating (% disease control) ([2]; 10 ppm): 0% | Test B rating (% disease control) ([3]; 10 ppm): 46% | Test F rating (% disease control) ([4]; 10 ppm): 97% | Test E rating (% disease control) ([5]; 10 ppm): 0% | Test D rating (% disease control) ([6]; 10 ppm): 100% | Test G rating (% disease control) ([7]; 10 ppm): 100%

C=CCC(O)(Cn1cncn1)C1=NOC(c2ccc(Cl)cc2)C1 (single isomer, unassigned) [Compound 84]
Test A rating (% disease control) ([1]; 10 ppm): 11% | Test C rating (% disease control) ([2]; 10 ppm): 0% | Test B rating (% disease control) ([3]; 10 ppm): 94% | Test F rating (% disease control) ([4]; 10 ppm): 9% | Test E rating (% disease control) ([5]; 10 ppm): 0% | Test D rating (% disease control) ([6]; 10 ppm): 73% | Test G rating (% disease control) ([7]; 10 ppm): 95%

OC(Cn1cncn1)(C1=NOC(c2ccc(-n3cncn3)cc2)C1)c1ccc(Cl)cc1 (mixture of isomers) [Compound 2]
Test A rating (% disease control) ([1]; 10 ppm): 33% | Test C rating (% disease control) ([2]; 10 ppm): 0% | Test B rating (% disease control) ([3]; 10 ppm): 0% | Test F rating (% disease control) ([4]; 10 ppm): 100% | Test E rating (% disease control) ([5]; 10 ppm): 0% | Test D rating (% disease control) ([6]; 10 ppm): 0% | Test G rating (% disease control) ([7]; 10 ppm): 99%

OC(Cn1cncn1)(C1=NOC(COc2ccc(Cl)cc2)C1)c1ccc(Cl)cc1 (single isomer, unassigned) [Compound 62]
Test A rating (% disease control) ([1]; 10 ppm): 3% | Test C rating (% disease control) ([2]; 10 ppm): 0% | Test B rating (% disease control) ([3]; 10 ppm): 0% | Test F rating (% disease control) ([4]; 10 ppm): 92% | Test E rating (% disease control) ([5]; 10 ppm): 0% | Test D rating (% disease control) ([6]; 10 ppm): 0% | Test G rating (% disease control) ([7]; 10 ppm): 96%
